Here are results for 2 molecules from US20230009608A1, “GRK2 INHIBITORS AND USES THEREOF” (Cygnal Therapeutics, Inc., priority 2020, published 2023).

In general, IC50 refers to the concentration that gives 50% inhibition. What is called GI50 is the concentration giving 50% growth inhibition.

The target in experiment [1] is T1, GRK2 (Homo sapiens, UniProt P25098).
T1 construct: purchased SignalChem A14-10G
T1 sequence (P25098 1-689): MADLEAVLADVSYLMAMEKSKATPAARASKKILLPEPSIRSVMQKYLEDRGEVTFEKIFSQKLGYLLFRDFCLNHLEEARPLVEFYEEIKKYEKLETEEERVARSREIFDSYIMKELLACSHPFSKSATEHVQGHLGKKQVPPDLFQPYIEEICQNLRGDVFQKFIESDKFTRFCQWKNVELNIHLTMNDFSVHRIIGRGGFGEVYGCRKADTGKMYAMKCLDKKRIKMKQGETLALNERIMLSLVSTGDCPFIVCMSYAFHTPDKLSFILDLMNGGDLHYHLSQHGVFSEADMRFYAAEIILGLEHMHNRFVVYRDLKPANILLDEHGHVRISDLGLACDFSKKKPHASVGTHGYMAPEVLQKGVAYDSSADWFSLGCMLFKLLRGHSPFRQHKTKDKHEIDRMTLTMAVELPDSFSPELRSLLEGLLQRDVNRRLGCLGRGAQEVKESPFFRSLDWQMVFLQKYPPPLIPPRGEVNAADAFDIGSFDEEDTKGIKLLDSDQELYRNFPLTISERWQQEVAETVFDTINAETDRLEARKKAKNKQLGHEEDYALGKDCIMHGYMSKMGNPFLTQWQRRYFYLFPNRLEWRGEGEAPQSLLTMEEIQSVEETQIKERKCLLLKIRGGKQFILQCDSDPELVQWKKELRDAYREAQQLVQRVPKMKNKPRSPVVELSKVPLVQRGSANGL
Briefly: GRK2 Inhibition Assay (TR-FRET, Example 7). Type of experiment: biochemical. The settings on record: 1 nM GRK2, 7 μM ATP, TR-FRET; read-out: GRK2 IC50 (nM) (Example 7). The gist of the method:
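GRK2 at 1 nM preincubated 30 min with compound, then reacted 90 min at room temperature with 7 μM ATP and 50 nM ULight-TopoIIα in HEPES/MgCl2/DTT buffer. Phosphorylation detected by TR-FRET after Eu anti-TopoIIα and EDTA addition, 60 min.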
In general terms: TR-FRET usually uses a lanthanide donor and a delayed reading to cut background.

The target of experiment [2] is T1, GRK2. Briefly: ADPGlo GRK2 Inhibition Assay (Example 8). Type of experiment: biochemical. The settings on record: 7.5 nM GRK2, 10 μM ATP, ADP-Glo; read-out: GRK2 IC50 (nM) (Example 8). The gist of the method:
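GRK2 (15 nM 2× enzyme solution) was preincubated 15 min with compound, then reacted 180 min at room temperature with 2× mix of 20 μM ATP plus GRKtide in HEPES pH 7.5, MgCl2, Tween-20, DTT. ADP was detected by ADP-Glo luminescence. Percent inhibition was normalised to enzyme and no-enzyme controls, with dose-response curves from threefold dilutions starting at 100 μM.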
(In general: ADP-Glo turns the ADP formed in a reaction into a luminescent signal.)

For experiment [3], the system named is PAXF1657 control empty vector cell line. The experiment can be described thus: 7-day proliferation assay, PAXF1657 control empty vector cell line (Example 9). Type of experiment: cell-based. The settings on record: 168 h; 7-day compound treatment, CellTiter-Glo. The gist of the method:
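Isogenic PAXF1657 pairs differing in GRK2 level (stable cDNA overexpression or CRISPR knockout, each with matched control) are seeded and allowed to attach overnight. Inhibitors span 30 μM-0.0002 μM in 0.3% DMSO for 3 plus 4 days at 37° C, 5% CO2, with a medium change between.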
A general note: ATP-based viability assays read luminescence as a measure of living cells.

The test system of experiment [4] is PAXF1657 cell line stably overexpressing GRK2. The experiment can be described thus: 7-day proliferation assay, PAXF1657 stably overexpressing GRK2 (Example 9). Type of experiment: cell-based. The settings on record: for GI50: 168 h, 7-day compound treatment, CellTiter-Glo. The method, then: In order to identify compounds specific for GRK2, we generated two isogenic cell line pairs of the pancreatic cancer cell line PAXF1657, a pair of cells stably overexpressing GRK2 cDNA or the control empty vector and a cell line pair of PAXF1657 GRK2 knockout clonal cells versus non-targeting control clonal cells.
Proliferation Assay: Cellular anti-proliferative activity of compounds was assessed by using the pancreatic cancer cell line, PAXF1657, stably overexpressing GRK2 cDNA or the control empty vector, as well as the parental urinary bladder cancer cell line, 5637. In addition, we also took advantage of GRK2 knockout cell lines that were generated via CRISPR. Cell lines were seeded into tissue culture treated, white-walled, 96-well plates at a density of 500 cells/well in RPMI1640 media supplemented with 10% H.I. FBS and penicillin/streptomycin. Plates were incubated overnight at 37° C., 5% CO2 to allow cells to adhere to the wells. GRK2 inhibitors were added to the cells using a 10-point dilution series with a final concentration ranging from 30 μM-0.0002 μM in 0.3% DMSO. At the time of compound addition, a set of plates, that were not treated with compounds, were collected and cell viability was measured using CellTiter-Glo (Promega). CellTiter-Glo reagent was added to the designed plates and luminescence was measuring using a Biotek Synergy plate reader. The compound treated cells were incubated for 3 days at 37° C., 5% CO2. The media was then aspirated from each well and replaced with fresh media containing GRK2 inhibitors. The compound treated cells were then incubated for an additional 4 days at 37° C., 5% CO2. Cell viability was assessed and at end of the 7-day compound treatment by CellTiterGlo.

For the molecule `CCOc1ccccc1CNC(=O)c1cccc(NCc2nnc(-c3ccncn3)n2C)c1` [compound 7], the IC50 was 33 nM on GRK2 [1] and 30 nM on GRK2 [2]. The values for the GI50 in experiment [3] and in experiment [4] were 3.32 µM and 14.2 µM, respectively. Besides, the “Ratio GRK2 overexpressing cells/Empty vector cells” value in experiment [4] (GI50 in GRK2 overexpressing PAXF1657 over GI50 in empty vector PAXF1657) worked out at 4.29.
In the case of `Cn1c(CNc2cccc(C(=O)NC3(c4ccccc4)CCOCC3)c2)nnc1-c1ccncn1` [compound 8], the IC50 came to 170 nM at GRK2 [1] and 140 nM at GRK2 [2]. The GI50 was greater than 30 µM in experiment [3] and 22.7 µM in experiment [4].
